First: C#CCCCC(=O)c1nc(C(C)(C)C)c(O)c(C(C)(C)C)n1
Second: CNCc1nc(-c2cc(C(C)(C)C)c(O)c(C(C)(C)C)c2)cs1
The melting point of the first is lower: 64 to 66 °C for the first, 136 °C for the second.

First: C=CC(=O)OCc1c2ccccc2cc2ccccc12
Second: CCOC(=O)c1c(OC(C)=O)c2ccccc2c2nc3ccccc3nc12
The melting point of the first is lower: 120 to 125 °C for the first, 195 to 196 °C for the second.

First: CCOC(=O)c1cn(-c2ccccc2)c2c([N+](=O)[O-])c(Cl)c(F)cc2c1=O
Second: CCOC(=O)c1cnc2n(c1=O)CC(C)CC2=NNc1ccccc1 (configuration not stated)
The melting point of the first is higher: 186 to 188 °C for the first, 165 to 167 °C for the second.

Compared with `Cn1c2ccc(Cl)cc2c2cc(C(=O)O)sc21`, `COc1ccc2c(c1)c(=O)n1nc(C#N)cc1n2C` is higher in melting point: 259 to 262 °C for the first, 316 to 320 °C for the second.

First: CCOC(=O)N1CCN(c2cn(C)c3nc(OCc4ccccn4)ccc23)C(=O)C1
Second: CCOC(=O)N1CCN(c2nc(NC(C)=O)ccc2[N+](=O)[O-])CC1
The melting point of the first is lower: 143 °C for the first, 168 to 169 °C for the second.

First: CC(=O)Oc1ccc(C=CC(=O)Nc2cc(C)c(OCc3ccccc3)c(C)c2)cc1OC(C)=O
Second: CCOC(=O)CCCOc1cccc2cc(/C(C)=C/C(=O)Nc3ccc(OC)cc3)oc12
The melting point of the first is lower: 125 to 127 °C for the first, 141 to 142 °C for the second.

Compared with `CCOC(=O)NS(=O)(=O)c1c(Cl)c(C)nn1C`, `CCOC(=O)c1c(S(N)(=O)=O)c2ccccc2n1CC` is higher in melting point: 106 to 109 °C for the first, 148 to 149 °C for the second.

First: Cc1cc(-c2cccc(C(F)(F)F)c2)n2ccnc2n1
Second: O=C(O)c1cccc(-c2nc(-c3ccc(C(F)(F)F)cc3)cs2)c1
The melting point of the first is lower: 170 to 172 °C for the first, 230 to 231 °C for the second.

Compared with `COc1ccc2[nH]c(S(=O)Cc3ncc(C)c(N4CCCCC4)c3Cl)nc2c1` (configuration not stated), `COc1ccc(OC)c(COc2cc(Cl)sn2)c1` is lower in melting point: 151 to 152 °C for the first, 52 to 55 °C for the second.

First: OC[C@@H]1CCCN1Cc1cc2cc3c(cc2c2cc(OCc4ccccc4)ccc12)OCO3
Second: CCc1nc2c(OCc3ccccc3)cc(Br)cc2n1C
The melting point of the first is higher: 122 to 124 °C for the first, 111 to 115 °C for the second.

First: N#CCC(=O)c1nn(-c2ccccc2)c2c1Cc1ccccc1-2
Second: Oc1ccccc1-c1nc(-c2ccccc2)no1
The melting point of the first is higher: 189 to 190 °C for the first, 156 to 158 °C for the second.

First: Cc1ccc(S(=O)(=O)Nc2ccc(-c3ccccc3)cn2)cc1
Second: CS(=O)(=O)c1ccc(C(O)c2cccc3ccccc23)cc1 (configuration not stated)
The melting point of the first is higher: 187 to 189 °C for the first, 160 °C for the second.

First: O=C(NCc1ccc(Cl)cc1)c1ccc2sccc2c1O
Second: CCC(=O)Nc1nc(CC(=O)N(C)c2ccc(Cl)cc2)cs1
The melting point of the first is higher: 168 to 169 °C for the first, 153 to 155 °C for the second.

Compared with `Nc1ccc([N+](=O)[O-])cc1S(=O)(=O)CCc1ccc(S(=O)(=O)O)cc1`, `CS(=O)(=O)CCNc1cc(C(c2cc(F)ccc2F)S(=O)(=O)c2ccc(Cl)cc2)c(Cl)cn1` (configuration not stated) is lower in melting point: 248 to 253 °C for the first, 134 to 136 °C for the second.

First: O=C1OC(CN2CCC(O)(c3ccccc3)CC2)CN1c1ccccc1 (configuration not stated)
Second: Nc1ncc(CN2CCN(c3ccccc3)CC2)c2nc(-c3ccco3)nn12
The melting point of the first is lower: 121 to 122 °C for the first, 185 to 187 °C for the second.

First: CCCCCS(=O)(=O)NC(=O)CCc1cc(OCCCC)nn1Cc1ccc(Cl)cc1Cl
Second: COc1ncc(S(C)(=O)=O)cc1CCC(=O)c1ccc(Cl)c(Cl)c1
The melting point of the first is lower: 104 to 105 °C for the first, 145 to 146 °C for the second.

First: Cc1noc(NS(=O)(=O)c2ccsc2-c2ccccc2)c1Br
Second: NS(=O)(=O)c1cc(C(=O)c2ccccc2)ccc1Cl
The melting point of the first is lower: 86 to 89 °C for the first, 183 to 185 °C for the second.

First: Cc1c(Cl)c(N)cc(Cl)c1Oc1ccc(Cl)cc1Cl
Second: NS(=O)(=O)c1c(Cl)ccc(NC(=O)Nc2cccc(Cl)c2Cl)c1O
The melting point of the first is lower: 96 to 97 °C for the first, 241 to 242 °C for the second.

Compared with `O=C(NC(Cc1ccc(OCc2ccc(F)cc2)cc1)C(=O)O)c1cc2ccc(-c3ccc(Cl)cc3)cc2o1` (configuration not stated), `COc1ccc(C(Sc2cc(Oc3ccc(F)cc3)ccc2N)C(O)C(=O)O)cc1` (configuration not stated) is higher in melting point: 166 to 168 °C for the first, 190 to 193 °C for the second.

First: N#CC[C@H](O)Cc1cc2ccccc2[nH]1
Second: O=c1[nH]c2cccc(Cl)c2c2cc(CO)nn12
The melting point of the first is lower: 92 to 93 °C for the first, 295 to 296 °C for the second.

Compared with `C=CCOc1cc(N2C(=O)C3CCCCN3C2=O)c(F)cc1C#N` (configuration not stated), `COc1cc2ncc(C#N)c(Nc3ccc(F)c(Cl)c3)c2cc1NC(=O)C=CCN1CCC(O)CC1` is higher in melting point: 132 °C for the first, greater than 215 °C for the second.

First: CC(C)CC(NC(=O)c1ccc(CBr)cc1)C(=O)NC(C)(C)C#N (configuration not stated)
Second: CCOC(=O)CNC(=O)Nc1ccc(C(=N)NC(=O)OC(C)(C)C)cc1
The melting point of the first is higher: 185 to 187 °C for the first, 107 to 110 °C for the second.

First: CCN(CC)CCCNC(=O)Cn1ncc(-c2ccc(NS(C)(=O)=O)cc2)c1-c1ccccc1
Second: CC(C)(C)Cn1cc(-c2ccc(Oc3ccccc3)cc2)c2c(N)ncnc21
The melting point of the first is higher: 179 to 180 °C for the first, 158 °C for the second.

Compared with `COC(=O)CCCCCCCCCCC(C)=S`, `CCCCCCCCOC(=O)COc1cc(F)ccc1C(=S)NCc1cccc([N+](=O)[O-])c1` is higher in melting point: less than 25 °C for the first, 69 to 72 °C for the second.

First: c1coc(-c2nc3nsnc3nc2-c2ccncn2)c1
Second: COc1ccc(-c2nn(C)c(=O)c3ccccc23)cc1Cl
The melting point of the first is higher: 233 to 235 °C for the first, 195 °C for the second.

Compared with `CCOCc1nc2cnc3cc(Br)ccc3c2n1CC1CCN(C(=O)OC(C)(C)C)CC1`, `O=C(c1ccc2nonc2c1)N1CCCCC1` is lower in melting point: 169 to 170 °C for the first, 88.5 to 90.5 °C for the second.

First: CN1CCN(C(=O)c2ccc(-c3cnc4c(c3)N(Cc3cc(F)ccc3F)CCN4)cc2)CC1
Second: CC(C)Nc1cccnc1N1CCN(C(=O)c2cc3cc(NS(=O)(=O)N4CCOCC4)ccc3[nH]2)CC1
The melting point of the first is lower: 180 °C for the first, 210 to 212 °C for the second.

First: CC(CCCc1ccccc1)n1nnc2c(=O)[nH]c(Cc3ccccc3)nc21 (configuration not stated)
Second: Cc1cc(Cc2ccccc2)c(NC(=O)NCc2ccccc2)c(=O)n1CC(=O)O
The melting point of the first is lower: 112 °C for the first, 176 °C for the second.

Compared with `CCC(CO)(OC)c1ccc(-c2ccc(OC)cc2)cc1` (configuration not stated), `CC(C)(C)c1ccc(Oc2cccc(C(=O)NCCN(O)C(N)=O)c2)cc1` is lower in melting point: 108 to 109 °C for the first, 100 to 102 °C for the second.

First: CCc1nn(C2CCCC2)c2cc(-c3ccccc3)ccc12
Second: CSc1ccc(-n2cnc3ccc(-c4nnc(C5CC5)o4)cc32)cc1
The melting point of the first is lower: 72 to 74 °C for the first, 198 to 199 °C for the second.

First: CC(C)(C)NNC(=O)c1ccccc1CO
Second: CC(C)NC(=O)OCC(=O)c1ccccc1F
The melting point of the first is higher: 116 to 118 °C for the first, 70 to 74 °C for the second.

Compared with `O=S(=O)(Nc1ccc(I)cc1)N1CCOCC1`, `CN(C)C(N)=Nc1cc(F)ccc1N1CCOCC1` is higher in melting point: 91 °C for the first, 137 to 138 °C for the second.

First: O=C(c1c(F)cccc1F)N1CS(=O)(=O)CN(c2ccc(Cl)cc2)C1=O
Second: COCc1c(C(=O)NC(C)C)ncc2[nH]c3cccc(Oc4ccc(Cl)cc4)c3c12
The melting point of the first is higher: 274 to 275 °C for the first, 255 °C for the second.

Compared with `N=C(N)NCCCOc1cccc2c1NC(=O)C(CC(=O)O)C2` (configuration not stated), `CCCc1c(OCCCOc2ccc(C(=O)O)cc2Cl)ccc(C(C)=O)c1O` is higher in melting point: 151 to 155 °C for the first, 171 to 172 °C for the second.

Compared with `C[C@@H]1OC(=O)N[C@H]1Cc1ccccc1`, `CC1(C)Nc2ccccc2NC1=S` is higher in melting point: 116 °C for the first, 140 to 142 °C for the second.

First: CCOC(=O)CCCCCOc1cc(C=CC2=C(C#N)C(=C(C#N)C#N)OC2(C)C)ccc1N
Second: CCOC(=O)CN1[C@H](C)CN(c2ccc(N)cc2C#N)C[C@@H]1C
The melting point of the first is higher: 164 °C for the first, 45 °C for the second.

First: CC1=CC(C)(C)C=C(O)C1
Second: Cc1cc(Cl)c(C)cc1O
The melting point of the first is lower: 46 °C for the first, 74 to 75 °C for the second.

First: CN(C)S(=O)(=O)c1ccc(C(=O)O)c(C(F)(F)F)c1
Second: COc1ccc(CCNC(=O)C(F)(F)F)cc1C=O
The melting point of the first is higher: 189 °C for the first, 105 to 106 °C for the second.

First: Cc1nn(-c2ccccn2)cc1COc1ccc(COc2ncccc2CC#N)cc1
Second: O=C1NC(=O)C(Cc2ccc(OCc3coc(-c4ccccc4)n3)cc2)S1 (configuration not stated)
The melting point of the first is lower: 138 to 139 °C for the first, 188 to 189 °C for the second.

First: COc1cc2c(c3c1OC(C)(C)C3)C(c1cccc(-c3ccc(N)cc3)c1)=NCC2(C)C
Second: CC1(C)CCC(C)(C)c2cc(C#Cc3ccc(CN)cc3)ccc21
The melting point of the first is higher: 232 to 234 °C for the first, 84 to 88 °C for the second.

First: COCc1ccn2c(C)c(CCc3ccc4nc(N)oc4c3)nc2c1
Second: CCCCOc1ccc(-c2nc(-c3ccccc3Cl)nn2C)c(Cl)c1
The melting point of the first is higher: 206 to 207 °C for the first, 60 to 62 °C for the second.

First: O=C(NCCCCCCNC(=O)NS(=O)(=O)c1ccc(Br)o1)NS(=O)(=O)c1ccc(Br)o1
Second: O=C(CCl)c1ccc(CCO)cc1
The melting point of the first is higher: 98 to 99 °C for the first, 41 to 45 °C for the second.

First: OC[C@H]1CC[C@H](c2ccc(Cl)cc2)CC1
Second: O=C(O)C1CSC(c2ccccc2-c2ccccc2)N1 (mixture of isomers)
The melting point of the first is lower: 60 to 63 °C for the first, 190 °C for the second.

First: CCn1cc(-c2nnnn2C)c(=O)c2ccccc21
Second: O=C(O)CCn1nnnc1-c1ccc2c(c1)S(=O)(=O)c1ccccc1C2=O
The melting point of the first is higher: 170 to 176 °C for the first, 143 to 145 °C for the second.

First: COC(=O)Cc1ccc(O)c(C23CC4CC(CC(C4)C2)C3)c1
Second: CC(=O)OCc1c(Br)cccc1N1CCc2c(sc3c2CCCC3)C1=O
The melting point of the first is higher: 185 to 186 °C for the first, 74 to 75 °C for the second.

Compared with `CCOC(=O)C1(O)c2ccccc2S(=O)(=O)N1Cc1ccc(Br)cc1` (configuration not stated), `Cc1ccccc1C(=O)c1ccc(Nc2ccc(Br)cc2NC(=O)OCCl)cc1Cl` is higher in melting point: 152 to 153 °C for the first, 189 to 190 °C for the second.

First: Cc1nc(CO)c(CO)[nH]1
Second: CSc1nc2[nH]c3c(c(=O)n2n1)SCCC3
The melting point of the first is lower: 182 °C for the first, 314 to 318 °C for the second.

Going from `COc1ccc2[nH]c(C(=O)N3CCc4cc(C(=O)NO)ccc4C3)cc2c1` to `CCN(CC)c1ccc(-c2cc(-c3ccc(C(=O)O)cc3)ccc2O)cc1C(C)(C)C`, the melting point rises from 156 °C to 190 °C.

Compared with `COc1nc(N)nc(OC(F)(F)F)n1`, `FC(F)(F)c1cc(Cl)c(-n2cnc(I)n2)c(Cl)c1` is higher in melting point: 69 to 91 °C for the first, 130 to 132 °C for the second.

First: C=C(C[C@@H](Cc1ccccc1)C(=O)N1CCOCC1)[C@H](C)[C@H](Cc1ccccc1)C(=O)N1CCOCC1 (relative stereo)
Second: CCCOCCOc1ccc(-c2ccc3c(c2)C=C(C(=O)Nc2ccc(CN(C)C4CCOCC4)cc2)CCS3(=O)=O)c(C)c1C
The melting point of the first is lower: 125 to 126 °C for the first, 158 to 159 °C for the second.

First: Cc1cccc2c1SC1(CCOC1=O)C2=O (configuration not stated)
Second: CC1Sc2nc3c(cnn3C)c(=O)n2C1C (configuration not stated)
The melting point of the first is lower: 98.5 to 99.5 °C for the first, 168 to 170 °C for the second.

From a melting point compilation (Tetko et al.; mined from patent text by program, amines drawn as free bases though some values may be those of a salt)
